The species named for series [1] is Rattus norvegicus. Description: Positive allosteric modulation of AMPA receptor in Sprague-Dawley rat embryonic hippocampal neuron assessed as concentration required to double the steady-state glutamate-induced current by patch-clamp assay. The settings on record: Hippocampus. Background: In patch-clamp work, channel activity is measured electrically.
The test system of series [2] is Rattus norvegicus. Description: Positive allosteric modulation of AMPA receptor in Sprague-Dawley rat adult hippocampus dentate gyrus assessed as increase in field excitatory postsynaptic potential amplitude at 5 mg/kg, ip infused for 30 mins relative to baseline. The series is classed as functional.
In series [3] the test system is Rattus norvegicus. The series is described as follows: Positive allosteric modulation of AMPA receptor in Sprague-Dawley rat adult hippocampus dentate gyrus assessed as increase in field excitatory postsynaptic potential amplitude at 3 mg/kg, ip infused for 30 mins relative to baseline. The settings on record: route intraperitoneal. The series is classed as functional.

Series [4] in a line: Half life in dog. It counts as ADME, organism-based, Canis lupus familiaris. Conditions: in vivo.
Series [5] is described as follows: Half life in rat. The series is classed as ADME, organism-based. Conditions: in vivo.
Series [6] is described as follows: Oral bioavailability in rat. The series is classed as ADME, organism-based. Conditions: in vivo.
Series [7] deals with Rattus norvegicus. Description: Positive allosteric modulation of AMPA receptor in Sprague-Dawley rat adult hippocampus dentate gyrus assessed as increase in field excitatory postsynaptic potential amplitude at 20 mg/kg, ip infused for 30 mins relative to baseline. It counts as functional. Conditions: route intraperitoneal.
Series [8] deals with Rattus norvegicus. The series is described as follows: Positive allosteric modulation of AMPA receptor in Sprague-Dawley rat adult hippocampus dentate gyrus assessed as increase in field excitatory postsynaptic potential amplitude at 10 mg/kg, ip infused for 30 mins relative to baseline. The series is classed as functional. Conditions: route intraperitoneal.
The nature of series [9]: Half life in cynomolgus monkey. The settings on record: in vivo. It counts as ADME, organism-based, Macaca fascicularis.
A short description of series [10]: Oral bioavailability in cynomolgus monkey. Conditions: in vivo. It counts as ADME, organism-based, Macaca fascicularis.
In series [11] the test system is Rattus norvegicus. Description: Positive allosteric modulation of AMPA receptor in Sprague-Dawley rat adult hippocampus dentate gyrus assessed as increase in field excitatory postsynaptic potential amplitude at 1 mg/kg, ip infused for 30 mins relative to baseline. It counts as functional. Conditions: route intraperitoneal.

Calls of active or inactive are those of the source. The rule behind the calls is not given here.

The text below walks through data of ChEMBL document CHEMBL1921784, “Benzobistriazinones and related heterocyclic ring systems as potent, orally bioavailable positive allosteric AMPA receptor modulators” (Bioorg Med Chem Lett, 2011).

As usually defined, the half-life is how long it takes for the measured level to halve. As usually defined, the bioavailability is dose-corrected exposure relative to a reference, in per cent.

Consider `C#CCn1nnc2cc3c(=O)n([C@H](C)Cn4cnnn4)cnc3cc2c1=O`, for which the CD in series [1] is 0.25 µM. In [2] (route intraperitoneal), the Activity is given as 1%.
On to `C[C@H](Cn1nccn1)n1nnc2cc3c(=O)n([C@H](C)Cn4ncnn4)nnc3cc2c1=O`, for which the CD in [1] was found to be 0.07 µM. For the same compound, the Activity in series [3] was 26%.
`C[C@H](Cn1cnnn1)n1nnc2cc3c(=O)n(C4CC4)nnc3cc2c1=O`: the CD in series [1] is 0.07 µM. The Activity in series [2] (route intraperitoneal) is given as 11%.
With `C[C@H](Cn1nccn1)n1nnc2cc3c(=O)n(C)nnc3cc2c1=O`, the CD in series [1] stood at 2.1 µM. In series [2] (route intraperitoneal), the Activity is 7%.
As to `C[C@H](Cn1ncnn1)n1cnc2cc3c(=O)n(C4CC4)nnc3cc2c1=O`, the CD in series [1] worked out at 0.6 µM. For the same compound, the half-life in series [4] is 4.8 h; in [5], 1.6 h. This compound displayed a bioavailability in [6] of 100%. Also, the Activity in series [2] (route intraperitoneal) was found to be 33%.
As for `C[C@H](Cn1ncnn1)n1nnc2cc3c(=O)n(C4CC4)cnc3cc2c1=O`, the CD in [1] is 1 µM. For the same compound, in [2] (route intraperitoneal), the Activity was found to be 16%.
In the case of `CCn1nnc2cc3c(=O)n([C@H](C)Cn4ncnn4)nnc3cc2c1=O`, in series [1], the CD came out at 0.3 µM. Moreover, the Activity in series [2] (route intraperitoneal) worked out at 34%.
As to `C[C@H](Cn1nccn1)n1cnc2cc3c(=O)n(C)nnc3cc2c1=O`, the Activity in series [7] was determined as 30%.
Turning to `CC#CCn1nnc2cc3c(=O)n([C@H](C)Cn4ncnn4)nnc3cc2c1=O`, in [2] (route intraperitoneal), the Activity is on record as 43%.
On the same count and under the same terms, then `O=c1c2cc3nnn(C4CC4)c(=O)c3cc2nnn1CCn1ncnn1`, with 1%; and `COCCn1nnc2cc3c(=O)n([C@H](C)Cn4ncnn4)nnc3cc2c1=O`, with 34%.
Regarding `C[C@H](Cn1nccn1)n1nnc2cc3c(=O)n(C4CC4)nnc3cc2c1=O`, the CD in series [1] came to 1.3 µM. Also, the Activity in [8] is recorded as 12%.
On to `C=CCn1nnc2cc3c(=O)n([C@H](C)Cn4ncnn4)nnc3cc2c1=O`, for which the Activity in [2] (route intraperitoneal) is recorded as 12%.
For `C[C@H](Cn1ncnn1)n1nnc2cc3c(=O)n(C4CC4)nnc3cc2c1=O`, in series [1], the CD came out at 0.28 µM. Further, the half-life in [9] is 9.5 h; in [4], 3 h; in [5], 1.7 h. Moreover, the bioavailability in series [6] and in series [10] was 100% in each case. Also, in series [2] (route intraperitoneal), the Activity came to 37%.
`C[C@H](Cn1ncnn1)n1nnc2cc3c(=O)n(C)nnc3cc2c1=O`: the CD in series [1] stood at 0.28 µM. The Activity in series [2] (route intraperitoneal) came out at 46%.
For `C#CCn1nnc2cc3c(=O)n([C@H](C)Cn4ncnn4)nnc3cc2c1=O` the same measures were 0.57 µM and 20%.
Regarding `O=c1c2cc3nnn(C4CC4)c(=O)c3cc2ncn1CCn1ncnn1`, the Activity in series [2] (route intraperitoneal) is 7%.
Turning to `C[C@H](Cn1cccn1)n1cnc2cc3c(=O)n([C@H](C)Cn4cccn4)cnc3cc2c1=O`, the CD in series [1] was 0.09 µM. The Activity in series [2] (route intraperitoneal) amounted to 2%.
For `Cc1nnn(C[C@@H](C)n2nnc3cc4c(=O)n(C5CC5)nnc4cc3c2=O)n1`, in that order: 3.1 µM and 7%.
`C[C@H](Cn1ccnn1)n1nnc2cc3c(=O)n(C)nnc3cc2c1=O`: in [1], the CD was 0.09 µM. Besides, the Activity in series [2] (route intraperitoneal) came to 7%.
For `C[C@H](Cn1ncnn1)n1cnc2cc3c(=O)n([C@H](C)Cn4ncnn4)cnc3cc2c1=O`, in that order: 0.03 µM and 0%.
For `CC(C)n1nnc2cc3c(=O)n([C@H](C)Cn4ncnn4)nnc3cc2c1=O` the same measures were 0.44 µM and 26%.
`C[C@H](Cn1ncnn1)n1cnc2cc3c(=O)n(C4CC4)cnc3cc2c1=O`: the CD in series [1] worked out at 1.4 µM. The Activity in series [2] (route intraperitoneal) came to 2%.
For the compound `C[C@H](CNS(C)(=O)=O)n1nnc2cc3c(=O)n(C4CC4)nnc3cc2c1=O`, the CD in series [1] was 0.7 µM. Also, in [2], the outcome was inactive.
Take `C[C@H](Cn1ccnn1)n1cnc2cc3c(=O)n(C)nnc3cc2c1=O`: in [7], the Activity came out at 5%.
On to `C#C[C@H](Cc1cccc(F)c1)n1nnc2cc3c(=O)n(C4CC4)nnc3cc2c1=O`, for which the CD in series [1] is 0.45 µM. Besides, the Activity in series [2] (route intraperitoneal) stood at 1%.
With `C[C@H](Cn1ncnn1)n1cnc2cc3c(=O)n(CCF)nnc3cc2c1=O`, the Activity in [8] is reported as 32%.
Turning to `C[C@H](Cn1ccnn1)n1nnc2cc3c(=O)n([C@H](C)Cn4ccnn4)nnc3cc2c1=O`, the CD in series [1] turned out to be 0.06 µM. The Activity in series [3] is 0%.
Regarding `C[C@H](Cn1cccn1)n1cnc2cc3c(=O)n(C4CC4)nnc3cc2c1=O`, the Activity in series [8] was 20%.
`C[C@H](Cn1ncc(C#N)n1)n1nnc2cc3c(=O)n(C4CC4)nnc3cc2c1=O`: in series [2] (route intraperitoneal), the Activity came to 17%.
On the same count and under the same terms, for `C#C[C@H](Cn1ncnn1)n1nnc2cc3c(=O)n(C4CC4)nnc3cc2c1=O` the value was 4%.
Consider `C#CCn1nnc2cc3c(=O)n([C@H](C)Cn4ncnn4)cnc3cc2c1=O`, for which the CD in series [1] is 0.5 µM. The Activity in series [2] (route intraperitoneal) was 11%.
As to `C[C@H](Cn1ncnn1)n1nnc2cc3c(=O)n([C@H](C)Cn4ncnn4)nnc3cc2c1=O`, the CD in series [1] amounted to 0.016 µM. For the same compound, the Activity in series [11] is given as 59%.
For the compound `C[C@H](Cn1cnnn1)n1nnc2cc3c(=O)n(C)nnc3cc2c1=O`, in series [1], the CD turned out to be 0.08 µM. Besides, the Activity in series [2] (route intraperitoneal) is on record as 19%.
Consider `C[C@H](Cn1ncc(C#N)n1)n1cnc2cc3c(=O)n(C4CC4)nnc3cc2c1=O`, for which the Activity in series [8] was 3%.
With `C[C@H](Cn1ncnn1)n1cnc2cc3c(=O)n([C@H](C)Cn4cnnn4)nnc3cc2c1=O`, the CD in [1] is 0.02 µM. The Activity in series [2] (route intraperitoneal) came out at 1%.
Consider `C[C@H](Cn1ncnn1)n1cnc2cc3c(=O)n(C)nnc3cc2c1=O`, for which the Activity in series [2] (route intraperitoneal) is recorded as 63%.
Consider `Cc1nnnn1C[C@@H](C)n1nnc2cc3c(=O)n(C4CC4)nnc3cc2c1=O`, for which the CD in [1] amounted to 0.25 µM. The Activity in series [2] (route intraperitoneal) is recorded as 8%.
As for `C[C@H](Cn1nccn1)n1cnc2cc3c(=O)n(C4CC4)nnc3cc2c1=O`, in series [8], the Activity came to 9%.
Take `C[C@H](Cn1ncnn1)n1cnc2cc3c(=O)n(CC(F)(F)F)nnc3cc2c1=O`: the Activity in series [8] is recorded as 7%.
Consider `C[C@H](Cn1cc(C#N)cn1)n1cnc2cc3c(=O)n(C4CC4)nnc3cc2c1=O`, for which the Activity in series [2] (route intraperitoneal) was found to be 2%.
As to `C[C@H](Cn1cnnn1)n1cnc2cc3c(=O)n(C4CC4)nnc3cc2c1=O`, in series [1], the CD worked out at 0.07 µM. Moreover, the Activity in series [2] (route intraperitoneal) is reported as 2%.
With `C[C@H](Cn1ncnn1)n1cnc2cc3c(=O)n(CC(F)F)nnc3cc2c1=O`, the Activity in [7] is 16%.
With `C[C@H](Cn1ncnn1)n1nnc2cc3c(cc2c1=O)OCN(C1CC1)C3=O`, in [5], the half-life was 0.27 h.
As to `C[C@H](Cn1cncn1)n1nnc2cc3c(=O)n(C4CC4)nnc3cc2c1=O`, in [1], the CD came to 1.1 µM. In [2] (route intraperitoneal), the Activity was determined as 7%.
As to `C[C@H](Cn1ccnn1)n1nnc2cc3c(=O)n(C4CC4)nnc3cc2c1=O`, in series [1], the CD worked out at 0.37 µM. Moreover, the Activity in series [8] was 24%.
For `C[C@H](Cn1nccn1)n1nnc2cc3c(=O)n([C@H](C)Cn4nccn4)nnc3cc2c1=O`, the CD in series [1] is 0.4 µM. Besides, the Activity in series [2] (route intraperitoneal) is 9%.
Consider `C[C@H](Cn1ncnn1)n1cnc2cc3c(=O)n([C@H](C)Cn4ncnn4)nnc3cc2c1=O`, for which the CD in [1] was found to be 0.008 µM. Further, the Activity in series [11] is 43%.
